In this test the test system is superior mesenteric artery (contracted by potassium chloride). Put plainly: Vessel Smooth Muscle Relaxation Action (V.R.). The format is cell-based, rabbit. The settings on record: concentration relaxing KCl-contracted strain to 50%, cumulative administration, read-out: V.R. (ED50). The source says:
The specimen was suspended by loading a strain in Krebs-Henseleit solution through which an oxygen gas containing 5% carbon dioxide was bubbled. The specimen was contracted by adding potassium chloride to maintain a predetermined strain. Thereafter, a test compound was cumulatively administrated.

Like-named read-outs stand apart in the source and are kept apart here.

34 compounds from patent US5245034A, “Compound having vessel smooth muscle relaxation activity” (Hidaka; Kiroyoshi, priority 1988, dated 1993) can be followed below.

On to `O=S(=O)(NC(Cc1cnc[nH]1)CN1CCN(c2ccccc2)CC1)c1cccc2cnccc12` (stereo not shown) [Example 2, N-[1-(Imidazol-4(5)-Yl-Methyl)-2-(4-Phenylpiperazinyl)Ethyl]-5-IsoquinolineSulfonamide], for which, under “Oryctolagus cuniculus”, the EC50 came to 47 µM.
Turning to `CN(C(Cc1ccc(O)c(O)c1)CN1CCN(c2ccccc2)CC1)S(=O)(=O)c1cccc2cnccc12` (stereo not shown) [Example 7, N-{1-[(3,4-Dihydroxyphenyl)Methyl]-2-(4-Phenylpiperazinyl)Ethyl}-N-Methyl-Isoquinoline Sulfonamide], the EC50 (Oryctolagus cuniculus) was 1.6 µM.
For `O=S(=O)(NC(Cc1ccc(O)c(O)c1)CN1CCN(c2ccccc2)CC1)c1cccc2cnccc12` (stereo not shown) [Example 8, N-{1-[(3,4-Dihydroxyphenyl)Methyl]-2-(4-Phenylpiperazinyl)Ethyl}-5-Isoquinoline Sulfonamide], the EC50 (Oryctolagus cuniculus) came out at 1.8 µM.
The same measure, in the same setting: for `O=S(=O)(c1cccc2cnccc12)N1Cc2cc(O)c(O)cc2CC1CN1CCN(c2ccccc2)CC1` (stereo not shown) [Example 10, 6,7-Dihydroxy-2-(5-Isoquinolinesulfonyl)-3-[(4-Phenylpiperazinyl)methyl]-1,2,3,4-tetrahydroisoquinoline] the value was 6.4 µM.
As to `Cc1ccc(S(=O)(=O)Nc2ccc(C[C@@H](C(=O)N3CCN(c4ccccc4)CC3)N(C)S(=O)(=O)c3cccc4cnccc34)cc2)cc1` [Example 22, 1-[N-(5-isoquinolinesulfonyl)-N-methyl-p-(p-toluenesulfonylamino)phenylalanyl]-4-phenylpiperazine], under “Oryctolagus cuniculus”, the EC50 is 1.8 µM.
The same measure, in the same setting: for `O=C(CCc1ccccc1)N1CCN(C(=O)[C@H](Cc2ccc(O)cc2)NS(=O)(=O)c2cccc3cnccc23)CC1` [Example 31, 1-[N-(5-isoquinolinesulfonyl)tyrosyl]-4-(3-phenylpropionyl)piperazine] the value was 24 ± 7 µM; for `O=C([C@H](Cc1ccc(O)cc1)NS(=O)(=O)c1cccc2cnccc12)N1CCN(CCCc2ccccc2)CC1` [Example 33, 1-[N-(5-Isoquinolinesulfonyl)Tyrosyl]-4-(3-Phenylpropyl)Piperazine], 21 µM.
`O=S(=O)(NC(Cc1ccc(OS(=O)(=O)c2cccc3cnccc23)cc1)CN1CCN(c2ccccc2)CC1)c1cccc2cnccc12` (stereo not shown) [Example 34]: where the note is “Oryctolagus cuniculus”, the EC50 is 1.8 µM.
In the case of `CN(C(Cc1ccc(OS(=O)(=O)c2cccc3cnccc23)cc1)CN1CCN(c2ccccc2)CC1)S(=O)(=O)c1cccc2cnccc12` (stereo not shown) [Example 35], for the setting “Oryctolagus cuniculus”, the EC50 amounted to 6.9 µM.
Consider `O=S(=O)(NC(Cc1ccc(O)cc1)CN1CCN(c2ccccc2)CC1)c1cccc2cnccc12` (stereo not shown) [Example 37, N-[1-(p-hydroxybenzyl)-2-(4-phenylpiperazinyl)ethyl]-5-isoquinolinesulfonamide], for which the EC50 (Oryctolagus cuniculus) stood at 4.4 µM.
On the same count and under the same terms, for `COc1ccc(CC(CN2CCN(c3ccccc3)CC2)N(C)S(=O)(=O)c2cccc3cnccc23)cc1` (stereo not shown) [Example 38, N-[1-(P-Methoxybenzyl)-2-(4-Phenylpiperazinyl)Ethyl]-N-Methyl-5-Isoquinolinesulfonamide] the value was 8.1 µM; for `CN(C(Cc1ccc(O)cc1)CN1CCN(c2ncccn2)CC1)S(=O)(=O)c1cccc2cnccc12` (stereo not shown) [Example 42, N-{1-(p-hydroxybenzyl)-2-[4-(2-pyrimidyl)piperazinyl]ethyl}-N-methyl-5-isoquinolinesulfonamide], 6.2 µM.
On the same count and under the same terms, for `CN(C(Cc1ccccc1)CN1CCN(c2ccccc2)CC1)S(=O)(=O)c1cccc2cnccc12` (stereo not shown) [Example 43, N-[1-benzyl-2-(4-phenylpiperazinyl)ethyl]-N-methyl-5-isoquinolinesulfonamide] the value was 0.36 µM.
Regarding `CN(C(Cc1ccc(OS(=O)(=O)c2cccc3cnccc23)cc1)CN1CCN(c2ccccn2)CC1)S(=O)(=O)c1cccc2cnccc12` (stereo not shown) [Example 45, N-{1-[p-(5-isoquinolinesulfonyloxy)benzyl]-2-[4-(2-pyridyl)piperazinyl]ethyl}-N-methyl-5-isoquinolinesulfonamide], where the note is “Oryctolagus cuniculus”, the EC50 worked out at 7.5 µM.
On the same count and under the same terms, for `CN(C(Cc1ccc(O)cc1)CN1CCN(c2ccccn2)CC1)S(=O)(=O)c1cccc2cnccc12` (stereo not shown) [Example 46, N-{1-(p-hydroxybenzyl)-2-[4-(2-pyridyl)piperazinyl]ethyl}-N-methyl-5-isoquinolinesulfonamide] the value was 4 µM; for `CN(C(Cc1ccc(O)cc1)CN1CCN(c2cccc(Cl)c2)CC1)S(=O)(=O)c1cccc2cnccc12` (stereo not shown) [Example 47, N-{2-[4-(m-chlorophenyl)piperazinyl]-1-(p-hydroxybenzyl)ethyl}-N-methyl-5-isoquinolinesulfonamide], 0.39 µM.
Still for that read-out and setting: in the case of `CN(C(Cc1ccc(OS(=O)(=O)c2cccc3cnccc23)cc1)CN1CCN(c2ccc(F)cc2)CC1)S(=O)(=O)c1cccc2cnccc12` (stereo not shown) [Example 49] it was 0.92 µM; in that of `Cc1cccc(N2CCN(CC(Cc3ccc(O)cc3)N(C)S(=O)(=O)c3cccc4cnccc34)CC2)c1` (stereo not shown) [Example 51, N-{1-(p-hydroxybenzyl)-2-[4-(m-methylphenyl)piperazinyl]ethyl}-N-methyl-5-isoquinolinesulfonamide], 0.17 µM; in that of `COc1ccc(N2CCN(CC(Cc3ccc(OS(=O)(=O)c4cccc5cnccc45)cc3)NS(=O)(=O)c3cccc4cnccc34)CC2)cc1` (stereo not shown) [Example 52], 9.9 µM.
Still for that read-out and setting: for `COc1ccc(N2CCN(CC(Cc3ccc(OS(=O)(=O)c4cccc5cnccc45)cc3)N(C)S(=O)(=O)c3cccc4cnccc34)CC2)cc1` (stereo not shown) [Example 53, N-{1-[p-(5-isoquinolinesulfonyloxy)benzyl]-2-[4-(p-methoxyphenyl)piperazinyl]ethyl}-N-methyl-5-isoquinolinesulfonamide] the value was 1.3 µM; for `COc1ccc(N2CCN(CC(Cc3ccc(O)cc3)N(C)S(=O)(=O)c3cccc4cnccc34)CC2)cc1` (stereo not shown) [Example 54, N-{1-(p-hydroxybenzyl)-2-[4-(p-methoxyphenyl)piperazinyl]ethyl}-N-methyl-5-isoquinolinesulfonamide], 1.7 µM.
Turning to `COc1ccc(N2CCN(CC(Cc3ccc(O)cc3)NS(=O)(=O)c3cccc4cnccc34)CC2)cc1` (stereo not shown) [Example 55, N-{1-(p-hydroxybenzyl)-2-[4-(p-methoxyphenyl)piperazinyl]ethyl}-5-isoquinolinesulfonamide], the EC50 (Oryctolagus cuniculus) was determined as 8.6 µM.
`COc1ccccc1N1CCN(CC(Cc2ccc(O)cc2)N(C)S(=O)(=O)c2cccc3cnccc23)CC1` (stereo not shown) [Example 56, N-{1-(p-hydroxybenzyl)-2-[4-(2-methoxyphenyl)piperazinyl]ethyl}-N-methyl-5-isoquinolinesulfonamide]: the EC50 (Oryctolagus cuniculus) turned out to be 1.2 µM.
Turning to `CN(C(Cc1ccc(O)cc1)CN1CCN(S(=O)(=O)c2ccccc2)CC1)S(=O)(=O)c1cccc2cnccc12` (stereo not shown) [Example 62, N-{2-[(4-Benzenesulfonyl)Piperazinyl)-1-(P-Hydroxybenzyl)-Ethyl}-N-Methyl-5-Isoquinolinesulfonamide], the EC50 (Oryctolagus cuniculus) worked out at 2.3 µM.
On to `CN(C(Cc1ccc(O)cc1)CN1CCN(C(=O)OCc2ccccc2)CC1)S(=O)(=O)c1cccc2cnccc12` (stereo not shown) [Example 67, N-[2-(4-benzyloxycarbonylpiperazinyl)-1-(p-hydroxybenzyl)ethyl]-N-methyl-5-isoquinolinesulfonamide], for which, where the note is “Oryctolagus cuniculus”, the EC50 was 2.2 µM.
As to `O=S(=O)(NC(Cc1ccc(O)cc1)CN1CCN(CCCc2ccccc2)CC1)c1cccc2cnccc12` (stereo not shown) [Example 69, N-{1-(p-hydroxybenzyl)-2-[4-(3-phenylpropyl)piperazinyl]ethyl}-5-isoquinolinesulfonamide], the EC50 turned out to be 14 µM.
Turning to `COc1ccc(CC(CN2CCN(C(=O)OCc3ccccc3)CC2)N(C)S(=O)(=O)c2cccc3cnccc23)cc1` (stereo not shown) [Example 72, N-[2-(4-benzyloxycarbonylpiperazinyl)-1-(p-methoxybenzyl)ethyl]-N-methyl-5-isoquinolinesulfonamide], the EC50 (Oryctolagus cuniculus) amounted to 4 µM.
In the case of `COc1ccc(CC(CN2CCN(C(=O)OCc3ccccc3)CC2)NS(=O)(=O)c2cccc3cnccc23)cc1` (stereo not shown) [Example 73, N-[2-(4-benzyloxycarbonylpiperazinyl)-1-(p-methoxybenzyl)ethyl]-5-isoquinolinesulfonamide], the EC50 (Oryctolagus cuniculus) was 14 µM.
Same read-out and setting: in the case of `CN(C(Cc1ccc(O)cc1)CN1CCN(C(=O)c2ccccc2)CC1)S(=O)(=O)c1cccc2cnccc12` (stereo not shown) [Example 75, N-[2-(4-Benzoylpiperazinyl)-1-(P-Hydroxybenzyl)Ethyl]-N-Methyl-5-Isoquinolinesulfonamide] it was 9.7 µM; in that of `CN(C(Cc1ccc(O)cc1)CN1CCN(S(=O)(=O)Cc2ccccc2)CC1)S(=O)(=O)c1cccc2cnccc12` (stereo not shown) [Example 76, N-[2-(4-benzylsulfonylpiperazinyl)-1-(p-hydroxybenzyl)ethyl]-N-methyl-5-isoquinolinesulfonamide], 2.9 µM.
In the case of `CN(C(Cc1ccc(O)cc1)CN1CCN(S(=O)(=O)c2cccc3cnccc23)CC1)S(=O)(=O)c1cccc2cnccc12` (stereo not shown) [Example 77, N-{1-(p-hydroxybenzyl]-2-[4-(5-isoquinolinesulfonyl)piperazinyl]ethyl}-N-methyl-5-isoquinolinesulfonamide], for the setting “Oryctolagus cuniculus”, the EC50 is 1.4 µM.
As for `CN(C(Cc1ccc(OS(=O)(=O)c2cccc3ccccc23)cc1)CN1CCN(C(=O)OCc2ccccc2)CC1)S(=O)(=O)c1cccc2ccccc12` (stereo not drawn) [Example 78, N-{2-(4-benzyloxycarbonylpiperazinyl)-1-[p-(α-naphtharenesulfonyloxy)benzyl]ethyl}-N-methyl-α-naphtharenesulfonamide], for the setting “Oryctolagus cuniculus”, the EC50 worked out at 1.8 µM.
Regarding `CN(C(Cc1ccc(O)cc1)CN1CCN(C(=O)OCc2ccccc2)CC1)S(=O)(=O)c1cccc2ccccc12` (stereo not drawn) [Example 79, N-[2-(4-benzyloxycarbonylpiperazinyl)-1-(p-hydroxybenzyl)ethyl]-N-methyl-α-naphtharenesulfonamide], under “Oryctolagus cuniculus”, the EC50 stood at 5.5 µM.
As for `CN(C(Cc1ccc(OS(=O)(=O)c2cccc3cnccc23)cc1)CN1CCCN(c2ccccc2)CC1)S(=O)(=O)c1cccc2cnccc12` (stereo not shown) [Example 81, N-{1-[p-(5-isoquinolinesulfonyloxy)benzyl]-2-(4-phenylhomopiperazinyl)ethyl}-N-methyl-5-isoquinolinesulfonamide], under “Oryctolagus cuniculus”, the EC50 is 1.7 µM.
